Measurements from US8883829B2, “2-phenyl-1,2,3-benzotriazoles for UV radiation absorbance” (DSM IP Assets B.V., priority 2010, dated 2014).
Read-outs that look alike come from different tables or passages of the source.

Assays:
[1] = Determination of the solubility in cosmetic solvents; conditions: saturated solution stirred 7 days at room temperature, HPLC; for solubility Finsolv TN: C12-15 Alkylbenzoate; for solubility Myritol 318: Capric/Caprylic Triglyceride
Procedure: (§1) 1.5 g of a cosmetic solvent (Capric/Caprylic Triglyceride (Mygliol 318) and C12-15 Alkylbenzoate (Finsolv TN)) is saturated with the respective Benzotriazol-derivative by adding 0.2 g portions while stirring at room temperature. The saturated solution is stirred for 7 days at room temperature. 1 ml of the supernatant is centrifuged and filtered in order to obtain a clear solution. The concentration of the Benzotriazol-derivative is determined by means of HPLC.

[2] = 7 days
Procedure: as §1

Compound	solubility Finsolv TN [1]	solubility Myritol 318 [1]	solubility Finsolv TN [2]	solubility Myritol 318 [2]
CCCCC(CC)C(=O)OCc1cc(C)cc(-n2nc3ccccc3n2)c1O (stereo not drawn) [Example 8, 2-Ethyl-hexanoic acid 3-(2H-benzotriazol-2-yl)-2-hydroxy-5-methyl-benzyl ester]	42%	24%	–	–
Cc1cc(COCCC(C)C)c(O)c(-n2nc3ccccc3n2)c1 [Example 6, 2-(2H-Benzotriazol-2-yl)-6-(3-methyl-butoxymethyl)-4-methyl-phenol]	37%	36%	–	–
CCCCC(CC)COCc1cc(C)cc(-n2nc3ccccc3n2)c1O (stereo not drawn) [Example 2, 2-(2H-Benzotriazol-2-yl)-6-(2-ethylhexyloxymethyl)-4-methyl-phenol]	–	–	64%	66%

Continued, in another order:

solubility Finsolv TN [1]	solubility Myritol 318 [1]	Compound	solubility Finsolv TN [2]	solubility Myritol 318 [2]
0.02%	0.01%	Cc1cc(CO)c(O)c(-n2nc3ccccc3n2)c1 [Example 14, 2-(2H-Benzotriazol-2-yl)-6-hydroxymethyl-4-methyl-phenol]	–	–
8%	6%	Cc1cc(COC(=O)CC(C)C)c(O)c(-n2nc3ccccc3n2)c1 [Example 9, 3-Methyl-butyric acid 3-(2H-benzotriazol-2-yl)-2-hydroxy-5-methyl-benzyl ester]	–	–
19%	12%	CCCCC(CC)COCc1cc(C)cc(-n2nc3ccc(Cl)cc3n2)c1O (stereo not drawn) [Example 12, 2-(5-Chloro-benzotriazol-2-yl)-6-(2-ethylhexyloxymethyl)-4-methyl-phenol]	–	–
